Ends that are not written are not given here.

One experiment relates to C57/BL6 mice. Description: In vivo Matrigel plug assay. Conditions: subcutaneous, 7 days. As to the method: In the present invention, the angiogenesis-inhibitory effect of the YH18 synthetic peptide, which had been proven in vitro assay according to Example 8-1, was assayed in vivo. An in vivo Matrigel plug assay was performed according to the method described by Maeshima, Y. et al., J. Biol. Chem., 275:23745-23750, 2000. 5-6 week old male C57/BL6 mice purchased from Hyochang scientific company, Korea, were used.
First, Matrigel (BD Biosciences, MA) was mixed with 20 units/ml heparin, 150 ng/ml bFGF (basic fibroblast growth factor, R&D system, International, Inc), and a YH18 synthetic peptide represented by SEQ ID NO: 26. As a control to the YH18 synthetic peptide, an YH18-con. peptide was used, and a control to peptide treatment was treated with 5% DMSO (solvent). The Matrigel mixture was injected subcutaneously to the C57/BL6 mice. After 7 days, the mice were sacrificed, and the Matrigel plugs were removed and fixed in 4% paraformaldehyde. The Matrigel plugs were buried in paraffin, sectioned and stained with H&E. Their sections were examined by light microscope, the number of blood vessels from 4-6 HPF (high power fields; ×200) was counted and averaged. Each group consisted of 3 or 4 Matrigel plugs.

The test system of experiment [1] is HUVECs. Description: HUVECs migration assay in transwell plate coated with βig-h3. Conditions: 500 μM or 1 mM peptide of SEQ ID NO: 26. The class given is cell-based, human. As to the method:
Firstly, to examine whether βig-h3 is involved in the migration of endothelial cells, the present inventors performed cell migration assay. The cell migration assay was performed in a transwell plate (8 μm pore size, Costar, Cambridge, Mass.). The undersurface of the membrane was coated with the recombinant βig-h3 His-β-b protein (10 μg/ml) prepared in Example 1 at 4° C., and then, blocked for 1 hour at room temperature with PBS buffer containing 2% BSA. Meanwhile, HUVECs were added with an anti-αvβ3 antibody (LM609) or an anti-αvβ5 antibody (P1F6) and preincubated at 37° C. for 30 minutes. A control was added with mouse IgG. Then, the HUVECs preincubated with the antibody were suspended in medium at a density of 3×10^5 cells/ml, and 0.1 ml of the cell suspension was added to the upper compartment of the filter. The cells were allowed to migrate at 37° C. for 6-8 hours.
Migration was terminated by removing the cells from the upper compartment of the filter with a cotton swab. The filters were fixed with 8% glutaraldehyde and stained with crystal violet. The extent of cell migration was determined by light microscope, and within each well, cell counting was done in nine randomly selected fields HPF (Microscopic high power fields, ×200).
Then, the present inventors examined whether the migration of endothelial cells is inhibited by the YH18 synthetic peptide. […]

The subject of experiment [2] is HUVECs.
Experimental: First, 100 μl of Matrigel (Chemicon, International Inc, Temecula, Calif.) was added to each well of a 96-well plate and allowed to polymerize. HUVECs were suspended in medium at a density of 3×10^5 cells/ml, and 0.1 ml of the cell suspension was added to each well of the well plate coated with Matrigel. At this time, 500 μM or 1 mM of the YH18 synthetic peptide represented by SEQ ID NO: 26 was added together. A control to peptide treatment was treated with 5% DMSO (solvent), and a control to the YH18 synthetic peptide was treated with the YH18-con. peptide represented by SEQ ID NO: 27. Thereafter, the cells were incubated at 37° C. for 16-18 hours. The cells were photographed, and endothelial tubes were counted and averaged.
Experiment [3] has as its system HUVECs. Description: HUVECs adhesion to plates coated with βig-h3, its fas-1 domains or mutants. The class given is cell-based, human. To be noted: 10 μg/ml protein coated on plate; attached cells by absorbance at 405 nm; control BSA. As to the method: Cell adhesion assay was performed according to the method described by Kim, J.-E. et al., J. Biol. Chem., 277:4615946165, 2002. For this purpose, 10 μg/ml of each of the recombinant proteins (βig-h3 His-β-b, βig-h3 D-I, βig-h3 D-II, βig-h3 D-III and βig-h3 D-IV) prepared in Example 1 was placed into a flat-bottomed 96-well ELISA (enzyme-linked immunosorbent assay) plate (Costar, Corning Inc., NY) and then incubated overnight at 4° C., to coat the surface of the plate. As a control, 2% BSA was coated on the plate. Then, the plate was treated with PBS (phosphate-buffered saline) containing 2% BSA, and blocked at room temperature for one hour.
Meanwhile, HUVECs (human umbilical vein endothelial cells; Clonetics, San Diego, Calif.) were incubated in EGM medium (Clonetics, San Diego, Calif.) containing 2% FBS (Fetal Bovine Serum) under a condition of 37° C. and 5% CO2. The incubated cells were suspended in medium at a density of 3×10^5 cells/ml, and 0.1 ml of the cell suspension was added to each well of the plate. Next, the cells were incubated at 37° C. for 30 minutes and washed one time with PBS buffer to remove cells which had not been attached to the plate. Attached cells were added with 50 mM citrate buffer (pH 5.0) containing 3.75 mM p-nitrophenyl-N-acetyl β-D-glycosaminide and 0.25% Triton X-100, and incubated at 37° C. for one hour. Thereafter, 50 mM glycine buffer (pH 10.4) containing 5 mM EDTA was added to block the activity of the enzyme. The absorbance was measured at a 405-nm in a Bio-Rad model 550 microplate reader. Here, the higher the number of cells adhered to the plate, the higher the absorbance.
Each of the deletion mutants was generated by PCR using a cDNA template encoding the fourth fas-1 domain (SEQ ID NO: 5) (Kim, J.-E. et al., J. Biol. Chem., 275:30907-30915, 2000). Each of the PCR-amplified DNA fragments was cloned into the EcoRV/Xhol sites of the pET-29b(+) vector (Novagen; Madison, Wis.). The mutations were confirmed by sequence analysis, and the deletion mutants were expressed and purified according to a prior method (Kim, J.-E., et al., J. Cell. Biochem., 77:169-178, 2000). Thereafter, the cell adhesion activity of each of the deletion mutants was tested in the same manner as in Example 2.
Previously, the present inventors reported that an YH motif, which contains tyrosine-histidine residues highly conserved in the fragment corresponding to amino acids 548-614 of SEQ ID NO: 1, and several leucine and isoleucine residues adjacent to the tyrosine-histidine residues, binds to the αvβ5 integrin (Kim, J.-E., et al., J. Biol. Chem., 277:46159-46165, 2002). Thus, the present inventors suspected that the YH motif may also interact with the αvβ3 integrin to mediate endothelial cell adhesion. For this reason, in the present invention, the tyrosine-histidine residues conserved in the fas-1 domains, and/or the leucine and isolucine residues adjacent to the tyrosine-histidine residues, were substituted in various combinations by alanine or serine (Kim, J.-E., et al., J. Biol. Chem. 277:4615946165, 2002)(see FIG. 4b). The amino acid sequences of the prepared YH motif mutants are shown in SEQ ID NO: 17 to SEQ ID NO: 22. The mutations were confirmed by sequence analysis. Then, the substitution mutants were expressed and purified according to a known method (Kim, J.-E., et al., J. Cell. Biochem., 77:169-178, 2000). The substitution mutants were tested for their cell adhesion activity according to the same manner as in Example 2.

Regarding “KELANILKYHIGDEILVS [YH18 synthetic peptide]”, the “number of blood vessels in Matrigel plug” value in the experiment on C57/BL6 mice (500 μM peptide in Matrigel with bFGF and heparin) was “significant reduction in the number of blood vessels”. In the experiment on C57/BL6 mice (1 mM peptide in Matrigel with bFGF and heparin), the “inhibition of angiogenesis in Matrigel plug” value was “complete inhibition of angiogenesis”. Further, the “inhibition of HUVECs migration toward βig-h3 by YH18 synthetic peptide” value in the experiment on HUVECs [1] is given as “inhibited the migration of endothelial cells toward βig-h3”. In addition, inhibition in the experiment on HUVECs [2] was half-maximal at 500 µM (IC50). For the same molecule, the “inhibition of HUVECs tube formation” value in the experiment with HUVECs [2] (500 μM or 1 mM peptide, dose-dependent) is given as “selectively inhibited”.

On to “D-IV-AAR: D-IV mutant, tyrosine-histidine to alanine-alanine and isoleucine/leucine on one side to serine (GDAKELANILKAASGDESSVSGGIGALVR; D-IV-AAR)”, for which, in the experiment on HUVECs [3], the “endothelial cell (HUVECs) adhesion activity” value (from here on “endothelial cell”) was “somewhat lower than those of D-IV-LAA and D-IV-AAR”.

With “D-IV-LAA: D-IV mutant, tyrosine-histidine to alanine-alanine and isoleucine/leucine on one side to serine (GDAKESANSSKAAIGDEILVSGGIGALVR; D-IV-LAA)”, in the experiment on HUVECs [3], the “endothelial cell” value was “somewhat lower than those of D-IV-LAA and D-IV-AAR”.

Regarding “D-IV-AA: D-IV mutant, tyrosine-histidine residues substituted with alanine-alanine (GDAKELANILKAAIGDEILVSGGIGALVR)”, the “endothelial cell” value in the experiment with HUVECs [3] was “equal to those of the fas-1 domain (D-IV) and its fragment (H1H2(6))”.

Take “D-IV-LYHR: D-IV mutant, all isoleucine and leucine residues on both sides of tyrosine-histidine substituted with serine (GDAKESANSSKYHSGDESSVSGGIGALVR; D-IV-LYHR)”: the “endothelial cell” value in the experiment with HUVECs [3] is given as “reduced to half that of the fas-1 domain”.

Regarding “D-IV-R: D-IV mutant, leucine and isoleucine residues adjacent to one side of tyrosine-histidine substituted with serine (GDAKELANILKYHSGDESSVSGGIGALVR; D-IV-R)”, the “endothelial cell” value in the experiment with HUVECs [3] is “equal to those of the fas-1 domain (D-IV) and its fragment (H1H2(6))”.

Turning to “D-IV-L: D-IV mutant, leucine and isoleucine residues adjacent to one side of tyrosine-histidine substituted with serine (GDAKESANSSKYHIGDEILVSGGIGALVR; D-IV-L)”, the “endothelial cell” value in the experiment on HUVECs [3] was “equal to those of the fas-1 domain (D-IV) and its fragment (H1H2(6))”.

B1: ΔH1H2(6): smallest deletion mutant fragment, amino acids 548-614 of SEQ ID NO: 1, SEQ ID NO: 10 (protein, listed as Homo sapiens)
chain: RALPPRERSRLLGDAKELANILKYHIGDEILVSGGIGALVRLKSLQGDKLEVSLKNNVVSVNKEPVA
In the case of B1, the “endothelial cell” value with HUVECs [3] was “still retains endothelial cell adhesion activity”.

One may read the IC50 as the point on the concentration scale where inhibition reaches its midpoint.

The values above are taken from patent US7919464B2, “Use of a peptide that interacts with αvβ3 integrin of endothelial cell” (Kyungpook National University Industry-Academic Cooperation …, priority 2003, dated 2011).
